Experimental findings from US20260347338A1, “PYRIMIDINE/PYRIDINE DERIVATIVES OR SALTS THEREOF AND PHARMACEUTICAL COMPOSITIONS COMPRISING THE SAME” (YUHAN CORPORATION, priority 2023, published 2026) are described below.

Molecules are shown by their SMILES. Counter-ions that a name gives are not always drawn.

The assay addresses T1, human recombinant HPK1 (Homo sapiens, UniProt Q92918).
T1 construct: purchased BPS Bioscience
The assay can be described thus: Inhibitory activity against human recombinant HPK1 (TR-FRET). The class given is biochemical. Particulars: ULight-p70S6K peptide, ATP at Km, room temperature, 1 hour, 0.32 to 1000 nM compound. The essentials:
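Recombinant human HPK1 with ULight-p70S6K peptide and ATP at Km, 1 h at room temperature in HEPES pH 7.4 buffer with Mg2+, Mn2+, EGTA, DTT; compounds 0.32–1000 nM final. EDTA stop, Eu-anti-phosphopeptide TR-FRET read (665 nm); IC50 from % inhibition versus DMSO, binned A–D at 10, 50, 100 nM.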

T1 sequence (Q92918 whole entry): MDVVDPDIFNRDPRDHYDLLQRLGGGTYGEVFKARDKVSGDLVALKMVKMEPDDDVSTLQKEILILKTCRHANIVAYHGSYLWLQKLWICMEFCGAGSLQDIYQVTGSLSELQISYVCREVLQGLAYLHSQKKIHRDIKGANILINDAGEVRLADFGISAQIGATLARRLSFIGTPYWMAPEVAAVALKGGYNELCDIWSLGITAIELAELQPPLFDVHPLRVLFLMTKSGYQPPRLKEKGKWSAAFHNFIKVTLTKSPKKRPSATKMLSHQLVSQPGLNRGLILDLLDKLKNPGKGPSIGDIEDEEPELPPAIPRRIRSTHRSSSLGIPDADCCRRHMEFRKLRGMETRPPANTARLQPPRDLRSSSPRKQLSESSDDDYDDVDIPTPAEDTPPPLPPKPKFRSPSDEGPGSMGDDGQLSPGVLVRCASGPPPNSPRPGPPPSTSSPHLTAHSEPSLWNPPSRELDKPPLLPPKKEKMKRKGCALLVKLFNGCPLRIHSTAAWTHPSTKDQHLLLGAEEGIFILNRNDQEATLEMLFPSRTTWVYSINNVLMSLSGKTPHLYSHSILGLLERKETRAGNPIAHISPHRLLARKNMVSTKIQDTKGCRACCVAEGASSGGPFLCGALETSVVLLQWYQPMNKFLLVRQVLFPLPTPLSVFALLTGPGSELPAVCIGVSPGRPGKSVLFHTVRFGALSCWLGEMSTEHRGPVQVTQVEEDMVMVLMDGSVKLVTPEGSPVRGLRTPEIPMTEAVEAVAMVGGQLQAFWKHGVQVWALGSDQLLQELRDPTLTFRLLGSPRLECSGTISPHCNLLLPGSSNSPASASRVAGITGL

Turning to `COc1cccc(F)c1-c1nccc(Nc2cc(N3CCC[C@H](N)C3)c(-c3ccc4c(c3)OCC(=O)N4C)cn2)n1` [Example 261, (S)-7-(4-(3-aminopiperidin-1-yl)-6-((2-(2-fluoro-6-methoxyphenyl)pyrimidin-4-yl)amino)pyridin-3-yl)-4-methyl-2H-benzo[b][1,4]oxazin-3(4H)-one hydrochloride], the IC50 is at most 10 nM.

`COc1cccc(F)c1-c1nccc(Nc2cc(N3CCC[C@H](N)C3)c(-c3cc(C)c4c(c3)CCC(=O)N4)cn2)n1` [Example 262, (S)-6-(4-(3-aminopiperidin-1-yl)-6-((2-(2-fluoro-6-methoxyphenyl)pyrimidin-4-yl)amino)pyridin-3-yl)-8-methyl-3,4-dihydroquinolin-2(1H)-one hydrochloride]: the IC50 was at most 10 nM.

As to `COc1cccc(F)c1-c1nccc(Nc2cc(N3CCC[C@H](N)C3)c(-c3ccc4c(c3)CCC(=O)N4C)cn2)n1` [Example 263, (S)-6-(4-(3-aminopiperidin-1-yl)-6-((2-(2-fluoro-6-methoxyphenyl)pyrimidin-4-yl)amino)pyridin-3-yl)-1-methyl-3,4-dihydroquinolin-2(1H)-one hydrochloride], the IC50 was at most 10 nM.

For the compound `COc1cccc(F)c1-c1nccc(Nc2cc(N3CCC[C@H](O)C3)c(-c3cnn(C4CC(C)(C)OC(C)(C)C4)c3)cn2)n1` [Example 264, (S)-1-(2-((2-(2-fluoro-6-methoxyphenyl)pyrimidin-4-yl)amino)-5-(1-(2,2,6,6-tetramethyltetrahydro-2H-pyran-4-yl)-1H-pyrazol-4-yl)pyridin-4-yl)piperidin-3-ol], the IC50 is at most 10 nM.

Regarding `COc1cccc(F)c1-c1nccc(Nc2cc(N3CCC[C@H](N)C3)c(-c3ccc(C(=O)N4CCNCC4)cc3)cn2)n1` [Example 265, (S)-(4-(4-(3-aminopiperidin-1-yl)-6-((2-(2-fluoro-6-methoxyphenyl)pyrimidin-4-yl)amino)pyridin-3-yl)phenyl)(piperazin-1-yl)methanone hydrochloride], the IC50 is at most 10 nM.

`CNC[C@@H]1CCCN(c2cc(Nc3ccnc(-c4c(F)cccc4OC)n3)ncc2-c2cnn(C(F)F)c2)C1` [Example 266, (S)-N-(5-(1-(difluoromethyl)-1H-pyrazol-4-yl)-4-(3-((methylamino)methyl)piperidin-1-yl)pyridin-2-yl)-2-(2-fluoro-6-methoxyphenyl)pyrimidin-4-amine hydrochloride]: the IC50 was at most 10 nM.

Regarding `CNC[C@H]1CCCN(c2cc(Nc3ccnc(-c4c(F)cccc4OC)n3)ncc2-c2cnn(C(F)F)c2)C1` [Example 267, (R)-N-(5-(1-(difluoromethyl)-1H-pyrazol-4-yl)-4-(3-((methylamino)methyl)piperidin-1-yl)pyridin-2-yl)-2-(2-fluoro-6-methoxyphenyl)pyrimidin-4-amine hydrochloride], the IC50 was at most 10 nM.

`COc1cccc(F)c1-c1nccc(Nc2cc(N3CC[C@@H](N)[C@H](C)C3)c(-c3cnn(C(F)F)c3)cn2)n1` [Example 268, N-(4-((3R,4R)-4-amino-3-methylpiperidin-1-yl)-5-(1-(difluoromethyl)-1H-pyrazol-4-yl)pyridin-2-yl)-2-(2-fluoro-6-methoxyphenyl)pyrimidin-4-amine hydrochloride]: the IC50 was at most 10 nM.

For `COc1cccc(F)c1-c1nccc(Nc2cc(N3CCC[C@H](N)C3)c(-c3cnn(C4CC(C)(C)OC(C)(C)C4)c3)cn2)n1` [Example 269, (S)-N-(4-(3-aminopiperidin-1-yl)-5-(1-(2,2,6,6-tetramethyltetrahydro-2H-pyran-4-yl)-1H-pyrazol-4-yl)pyridin-2-yl)-2-(2-fluoro-6-methoxyphenyl)pyrimidin-4-amine hydrochloride], the IC50 is at most 10 nM.

Consider `COc1cccc(F)c1-c1nccc(Nc2cc(N3CCC[C@H](N)C3)c(-c3ccc4c(c3)NC(=O)C(C)O4)cn2)n1` (stereo partly drawn) [Example 270, 6-(4-((S)-3-aminopiperidin-1-yl)-6-((2-(2-fluoro-6-methoxyphenyl)pyrimidin-4-yl)amino)pyridin-3-yl)-2-methyl-2H-benzo[b][1,4]oxazin-3(4H)-one hydrochloride], for which the IC50 was at most 10 nM.

For the compound `COc1cccc(F)c1-c1nccc(Nc2cc(N3CCC[C@H](C)C3)c(-c3cnn(C(F)F)c3)cn2)n1` [Example 271, (S)-N-(5-(1-(difluoromethyl)-1H-pyrazol-4-yl)-4-(3-methylpiperidin-1-yl)pyridin-2-yl)-2-(2-fluoro-6-methoxyphenyl)pyrimidin-4-amine], the IC50 was at most 10 nM.

Regarding `COc1cccc(F)c1-c1nccc(Nc2cc(N3CCC[C@H](CF)C3)c(-c3cnn(C(F)F)c3)cn2)n1` [Example 272, (S)-N-(5-(1-(difluoromethyl)-1H-pyrazol-4-yl)-4-(3-(fluoromethyl)piperidin-1-yl)pyridin-2-yl)-2-(2-fluoro-6-methoxyphenyl)pyrimidin-4-amine], the IC50 was at most 10 nM.

`COc1cccc(F)c1-c1nccc(Nc2cc(N3CCC[C@@H](C(F)F)C3)c(-c3cnn(C(F)F)c3)cn2)n1` [Example 273, (R)-N-(5-(1-(difluoromethyl)-1H-pyrazol-4-yl)-4-(3-(difluoromethyl)piperidin-1-yl)pyridin-2-yl)-2-(2-fluoro-6-methoxyphenyl)pyrimidin-4-amine]: the IC50 is at most 10 nM.

As to `COc1cccc(F)c1-c1nccc(Nc2cc(N3CCC[C@H](N)C3)c(-c3cnc4c(c3)OCC(=O)N4C)cn2)n1` [Example 274, (S)-7-(4-(3-aminopiperidin-1-yl)-6-((2-(2-fluoro-6-methoxyphenyl)pyrimidin-4-yl)amino)pyridin-3-yl)-4-methyl-2H-pyrido[3,2-b][1,4]oxazin-3(4H)-one hydrochloride], the IC50 is at most 10 nM.

As to `COc1cccc(F)c1-c1nccc(Nc2cc(N3CCC[C@H](N)C3)c(-c3cnc4c(c3)OCC(=O)N4)cn2)n1` [Example 275, (S)-7-(4-(3-aminopiperidin-1-yl)-6-((2-(2-fluoro-6-methoxyphenyl)pyrimidin-4-yl)amino)pyridin-3-yl)-2H-pyrido[3,2-b][1,4]oxazin-3(4H)-one hydrochloride], the IC50 is at most 10 nM.

As to `COc1cccc(F)c1-c1nccc(Nc2cc(N3CCC[C@H](N)C3)c(-c3cnc4c(c3)CCC(=O)N4)cn2)n1` [Example 276, (S)-6-(4-(3-aminopiperidin-1-yl)-6-((2-(2-fluoro-6-methoxyphenyl)pyrimidin-4-yl)amino)pyridin-3-yl)-3,4-dihydro-1,8-naphthyridin-2(1H)-one hydrochloride], the IC50 is at most 10 nM.

As to `COc1cccc(F)c1-c1nccc(Nc2cc(N3CCC[C@H](N)C3)c(-c3cnn(C4COC4)c3)cn2)n1` [Example 277, (S)-N-(4-(3-aminopiperidin-1-yl)-5-(1-(oxetan-3-yl)-1H-pyrazol-4-yl)pyridin-2-yl)-2-(2-fluoro-6-methoxyphenyl)pyrimidin-4-amine hydrochloride], the IC50 was at most 10 nM.

Regarding `COC(=O)C(C)(C)n1cc(-c2cnc(Nc3ccnc(-c4c(F)cccc4OC)n3)cc2N2CCC[C@H](N)C2)cn1` [Example 278, methyl (S)-2-(4-(4-(3-aminopiperidin-1-yl)-6-((2-(2-fluoro-6-methoxyphenyl)pyrimidin-4-yl)amino)pyridin-3-yl)-1H-pyrazol-1-yl)-2-methylpropanoate hydrochloride], the IC50 was at most 10 nM.
